Conditions: instrument: DT, single field, calibrated with Agilent tune mix (Agilent)

Structure (SMILES) | collision cross section (N2) ([M+Na]+) | collision cross section (N2) ([M-H]-) | collision cross section (N2) ([M+H]+) | also measured
C[C@]12CCC(=O)C=C1CC[C@@H]1[C@@H]2CC[C@@]2(C)[C@H]1CC[C@]2(O)C(=O)CO [11-Deoxycortisol] |  | 183.12 Å² |  | 
CC(=O)[C@H]1CC[C@H]2[C@@H]3CCC4=CC(=O)CC[C@]4(C)[C@H]3[C@@H](O)C[C@]12C [11beta-Hydroxyprogesterone] |  |  | 182.3 Å² | collision cross section (N2) ([M-H2O-H]-): 180.95 Å²
C[C@H](CCCC(C)(C)O)[C@H]1CC[C@H]2[C@@H]3CC=C4C[C@@H](O)CC[C@]4(C)[C@H]3CC[C@]12C [25-Hydroxycholesterol] |  | 202.81 Å² |  | 
CC(=O)SCCNC(=O)CCNC(=O)[C@H](O)C(C)(C)COP(=O)(O)OP(=O)(O)OC[C@H]1O[C@@H](n2cnc3c(N)ncnc32)[C@H](O)[C@@H]1OP(=O)(O)O [Acetyl-CoA] |  |  | 244.7 Å² | 
Nc1ncnc2c1ncn2[C@@H]1O[C@@H]2COP(=O)(O)O[C@H]2[C@H]1O [Adenosine 3',5'-cyclic phosphate] |  |  | 176.8 Å² | 
Nc1ncnc2c1ncn2[C@@H]1O[C@H](COP(=O)(O)OP(=O)(O)OP(=O)(O)O)[C@@H](O)[C@H]1O [Adenosine 5'-triphosphate] |  | 185.74 Å² | 196.4 Å² | 
Nc1ncnc2c1ncn2[C@@H]1O[C@H](COP(=O)(O)O)[C@@H](O)[C@H]1O [Adenosine monophosphate (AMP)] |  |  | 171.4 Å² | 
O=C(O)CCCCC(=O)O [Adipic acid] |  |  |  | collision cross section (N2) ([M+Na-2H]-): 129.61 Å²
O=P(O)(O)OC[C@H]1O[C@H](OP(=O)(O)O)[C@H](O)[C@@H](O)[C@@H]1O [Alpha-D-Glucose 1,6-bisphosphate] |  |  |  | collision cross section (N2) ([M+Na-2H]-): 159.11 Å²
OC[C@H]1O[C@H](O)[C@H](O)[C@@H](O)[C@@H]1O [Alpha-D-Glucose] | 146.2 Å² |  |  | 
C[C@]12CCC(=O)C=C1CC[C@@H]1[C@@H]2CC[C@]2(C)C(=O)CC[C@@H]12 [Androstendione] |  | 172.77 Å² |  | 
C[C@]12CC[C@@H](O)C[C@@H]1CC[C@@H]1[C@@H]2CC[C@]2(C)C(=O)CC[C@@H]12 [Androsterone] |  |  |  | collision cross section (N2) ([M+H-H2O]+): 166.6 Å²
O=C1CC(=O)NC(=O)N1 [Barbituric acid] |  | 112.69 Å² |  | 
C[C@]12CC[C@@H]3c4ccc(O)cc4CC[C@H]3[C@@H]1CC[C@@H]2O [Beta-Estradiol] |  | 173.34 Å² |  | 
Nc1ccn([C@@H]2O[C@H](COP(=O)(O)OP(=O)(O)O)[C@@H](O)[C@H]2O)c(=O)n1 [CDP] |  |  | 175.1 Å² | 
O=C(/C=C/c1ccc(O)c(O)c1)O[C@@H]1C[C@](O)(C(=O)O)C[C@@H](O)[C@H]1O [Chlorogenic acid] |  |  | 185.1 Å² | collision cross section (N2) ([M+Na-2H]-): 173.79 Å²
CC(C)(COP(=O)(O)OP(=O)(O)OC[C@H]1O[C@@H](n2cnc3c(N)ncnc32)[C@H](O)[C@@H]1OP(=O)(O)O)[C@@H](O)C(=O)NCCC(=O)NCCS [Coenzyme A] |  | 241.54 Å² | 240.4 Å² | 
C[C@]12CCC(=O)C=C1CC[C@@H]1[C@@H]2CC[C@@]2(C)[C@H]1CC[C@]2(O)C(=O)CO [Cortexolone] |  |  | 187.4 Å² | 
C[C@]12C[C@H](O)[C@H]3[C@@H](CCC4=CC(=O)CC[C@@]43C)[C@@H]1CC[C@@H]2C(=O)CO [Corticosterone] |  | 186.46 Å² | 186.8 Å² | 
COc1cc(/C=C/C(=O)CC(=O)/C=C/c2ccc(O)c(OC)c2)ccc1O [Curcumin] |  |  | 201.6 Å² | collision cross section (N2) ([M+Na-2H]-): 178.82 Å²
Nc1ccn([C@@H]2O[C@H](COP(=O)(O)OP(=O)(O)O)[C@@H](O)[C@H]2O)c(=O)n1 [Cytidine 5'-diphosphate] |  | 171.31 Å² |  | 
O=C(CO)[C@@H](O)[C@H](O)[C@H](O)COP(=O)(O)O [D-Fructose-6-phosphate] | 154.2 Å² |  |  | 
OC1OC[C@@H](O)[C@@H](O)[C@H]1O (stereo partly drawn) [D-Ribose] | 135.3 Å² |  |  | 
OC[C@@H](O)[C@@H](O)[C@H](O)[C@@H](O)CO [D-Sorbitol] | 142.5 Å² | 129.64 Å² |  | 
O=C(O)[C@H]1OC(O)[C@H](O)[C@@H](O)[C@H]1O (stereo partly drawn) [D-galacturonic acid] | 143.7 Å² | 128.3 Å² |  | 
Nc1nc(=O)c2ncn([C@H]3C[C@H](O)[C@@H](CO)O3)c2[nH]1 [Deoxyguanosine] | 171.7 Å² | 156.76 Å² |  | 
Cc1cn([C@H]2C[C@H](O)[C@@H](COP(=O)(O)OP(=O)(O)O)O2)c(=O)[nH]c1=O [Deoxythymidine 5'-diphosphate] | 177.6 Å² | 172.11 Å² |  | 
O=c1ccn([C@H]2C[C@H](O)[C@@H](COP(=O)(O)O)O2)c(=O)[nH]1 [Deoxyuridine monophosphate] | 167.5 Å² | 156 Å² |  | 
CC1CNC(=O)NC1=O (stereo unspecified) [Dihydrothymine] |  |  | 131.2 Å² | 

Continued, in another order:

collision cross section (N2) ([M+Na]+) | collision cross section (N2) ([M-H]-) | collision cross section (N2) ([M+H]+) | Structure (SMILES) | also measured
156.2 Å² | 154.36 Å² |  | COc1ccc2[nH]cc(C[C@H](N)C(=O)O)c2c1 [5-methoxytryptophan] | 
192.5 Å² |  |  | CCCCC/C=C/C=C1/C(=O)C=C[C@@H]1C/C=C\CCCC(=O)O [15-Deoxy-delta-12,14-PGJ2] | 
 |  | 174.1 Å² | CCCCC/C=C\C/C=C\C/C=C\CCCCC(=O)O [(6,9,12)-Linolenic acid] | 
142.7 Å² |  |  | CC(=O)OP(=O)(O)O [Acetyl phosphate] | 
 | 166.71 Å² | 169.6 Å² | COC(=O)[C@H](Cc1ccccc1)NC(=O)[C@@H](N)CC(=O)O [Aspartame] | 
 | 247.18 Å² |  | C=CC1=C(C)/C(=C/c2[nH]c(Cc3[nH]c(/C=C4\NC(=O)C(C)=C4C=C)c(C)c3CCC(=O)O)c(CCC(=O)O)c2C)NC1=O [Bilirubin] | 
 | 146.87 Å² |  | CCCCCCCCCC(=O)O [Capric acid] | 
197.3 Å² | 200.72 Å² |  | C[C@H](CCC(=O)O)[C@H]1CC[C@H]2[C@@H]3[C@H](O)C[C@@H]4C[C@H](O)CC[C@]4(C)[C@H]3C[C@H](O)[C@]12C [Cholic acid] | 
 |  | 144.2 Å² | N[C@@H](CSS(=O)(=O)O)C(=O)O [Cysteine-S-sulfate] | collision cross section (N2) ([M+Na-2H]-): 133.29 Å²
 | 116.91 Å² |  | N[C@H](CC(=O)O)C(=O)O [D-Aspartic acid] | 
145.8 Å² |  |  | O=C([O-])[C@H](O)[C@@H](O)[C@H](O)[C@H](O)CO [D-gluconate] | 
 | 276 Å² | 277 Å² | CCCCCCCCCC(=O)SCCNC(=O)CCNC(=O)[C@H](O)C(C)(C)COP(=O)(O)OP(=O)(O)OC[C@H]1O[C@@H](n2cnc3c(N)ncnc32)[C@H](O)[C@@H]1OP(=O)(O)O [Decanoyl-CoA] | 
 |  | 144.1 Å² | C[C@@H]1NC(=O)N[C@@H]1CCCCCC(=O)O [Dethiobiotin] | collision cross section (N2) ([M+2Na-3H]-): 162.06 Å²
 | 134.28 Å² | 140.8 Å² | NC(CCCC(N)C(=O)O)C(=O)O (stereo unspecified) [Diaminopimelic acid] | 

Reference: the C3SDB collision cross section collection
